The source of these data is patent publication US20060014712A1, “Controlled delivery of therapeutic compounds” (CeMines, Inc., priority 2004, published 2006).

Experiment [1] deals with Dct/Trp2 promoter. The experiment is described as follows: Transient CAT assay, Dct/Trp2 proximal promoter-CAT construct in SK-MEL-28. Format: cell-based, human. Particulars: CPP concentration 10 μM. Here is the method:
(§1) SOX10 and MITF interact with the proximal promoter of Dct/Trp2 gene and induces its activity (Ludwig A. et al., FEBS Lett. 556 (1-3):236-244 (2004)). Thus, a Dct/Trp2 proximal promoter reporter construct was used to analyze effect of mimicking peptides on promoter activity using transient CAT assay.
(§2) Methods. Human melanoma cell lines SK-MEL-28 and WM 266-4 were obtained from the American Tissue Culture Collection (ATCC) and were cultured according to recommendations of ATCC (DMEM, 10% FCS, penicillin+streptomycin). Dct/Trp2 proximal promoter-CAT construct (Ludwig et al., supra) was used in all experiments.
(§3) Cells were transfected by using FuGene reagent (Roche Molecular Biochemicals) according to manufacturer's instructions. Freeze-thaw lysates of cells collected 48 h after the transfection were assayed for CAT activity as described (Pothier, F. et al., DNA Cell Biol. 11(1):83-90 (1992)). At least two different DNA preparations were tested for each plasmid. To normalize the transfection efficiencies, cells were cotransfected with pON260 expressing β-galactosidase (Spaete, R. R. and Mocarski, E. S., J. Virol. 54(3):817-24 (1985); Spaete, R. R. and Mocarski, E. S., J. Virol. 56(1):13543 (1985)). All the CAT activities were normalized to total protein and β-galatosidase activity.
(§4) Following transfection, cells were grown in 6 well plates, each treatment in triplicates. Peptides were added to the media and media was changed every day during the 7 day experiment. CPP concentration was 10 μM.

Experiment [2] has as its system B16. The experiment can be described thus: WST-1 test (mitochondrial activity). Format: cell-based, mouse. Particulars: CPP mimicking peptides, conc 10 µM, untreated = 1. Here is the method:
Methods. Human melanoma cell lines SK-MEL-28 and WM 2664 and mouse melanoma cell line B16 were obtained from the American Tissue Culture Collection (ATCC). Cells were cultured according to recommendations of ATCC (DMEM, 10% FCS, penicillin+streptomycin) and used in experiments after two passages in the laboratory. Cells were grown in 24 well plates, each treatment in triplicates. Cells were plated 16 hours prior treatments started. Peptides were added to the media, and media was changed every day during 7 day experiment. […]

Experiment [3] concerns B16. The experiment can be described thus: Cell counting after 7 day peptide treatment. Format: cell-based, mouse. Particulars: CPP mimicking peptides, conc 10 µM, start count 10. Here is the method: The ability to block interaction of MITF, SOX10 and STAT3 with active transcriptional complex and inhibit proliferation and stimulate apoptosis of melanoma cells were tested on human melanoma cell lines SK-MEL-28 and WM 266-4, and mouse melanoma cell line B16. Methods. Human melanoma cell lines SK-MEL-28 and WM 2664 and mouse melanoma cell line B16 were obtained from the American Tissue Culture Collection (ATCC). Cells were cultured according to recommendations of ATCC (DMEM, 10% FCS, penicillin+streptomycin) and used in experiments after two passages in the laboratory. Cells were grown in 24 well plates, each treatment in triplicates. Cells were plated 16 hours prior treatments started. Peptides were added to the media, and media was changed every day during 7 day experiment. […] Cells were precipitated and resuspended in 100 μl of PBS, and 5 μl were removed for counting

Experiment [4] relates to Dct/Trp2 promoter. The experiment is described as follows: Transient CAT assay, Dct/Trp2 proximal promoter-CAT construct in WM 266-4. Format: cell-based, human. Particulars: CPP concentration 10 μM. Here is the method: as §1, §2, §3, §4
Experiment [5] deals with B16. The experiment can be described thus: Apoptosis, Annexin V-Cy3 Apoptosis Kit. In kind it is cell-based, mouse. Particulars: CPP mimicking peptides, conc 10 µM. Here is the method: Methods. Human melanoma cell lines SK-MEL-28 and WM 2664 and mouse melanoma cell line B16 were obtained from the American Tissue Culture Collection (ATCC). Cells were cultured according to recommendations of ATCC (DMEM, 10% FCS, penicillin+streptomycin) and used in experiments after two passages in the laboratory. Cells were grown in 24 well plates, each treatment in triplicates. Cells were plated 16 hours prior treatments started. Peptides were added to the media, and media was changed every day during 7 day experiment. CPP concentration was 10 μM Apoptosis was analyzed using Biovision Annexin V-Cy3 Apoptosis Kit according to manufacturers protocols.

The subject of experiment [6] is Human keratinocytes. The experiment can be described thus: Cell counting after 7 day peptide treatment. In kind it is cell-based. Particulars: keratinocyte, modified peptides, conc 10 µM, start count 10. Here is the method: Methods. Human melanoma cell lines SK-MEL-28 and WM 266-4 were obtained from the American Tissue Culture Collection (ATCC) and were cultured according to recommendations of ATCC (DMEM, 10% FCS, penicillin+streptomycin). Human keratinocytes were obtained from Clonetics and cultured according to manufacturers protocol. Cells were used in experiments after two passages in the laboratory. Cells were grown in 24 well plates, each treatment in triplicates. Cells were plated 16 hours prior treatments started. Peptides were added to the media, and media was changed every day during 7 day experiment. CPP concentration was 10 μM. For cell counting, cells were trypsinized (0.25% Trypsin, 2 mM EDTA) in Ca, Mg free PBS. Cells were precipitated and resuspended in 100 μl of PBS, and 5 μl were removed for counting.

For experiment [7], the system named is Human keratinocytes. The experiment is described as follows: Apoptosis, Annexin V-Cy3 Apoptosis Kit. Particulars: keratinocyte, modified peptides, conc 10 µM. Format: cell-based.
The subject of another experiment is B16 melanoma. The experiment is described as follows: Mouse tumor xenograft model, peptide membrane patch on skin melanoma. In kind it is in vivo. Particulars: patch immersed in 100 μM peptide solution, start = 100. Here is the method: The effect of modified mimicking peptides was analyzed by inducing melanomas in mouse skin by grafting suspension of melanoma cells. […] Tumor diameter was measured 1, 2, 3, 5, 7 days after treatmet started.
Methods. Mouse melanoma cell line B16 was cultured as described above, and approximately 5×10^6 cells were injected subcutaneously into the left and right limbs of three C57BL/6JOIaHsd mice.
Administration. Cellulose membrane was immersed in a solution of peptides (100 μM). Size of tumor was measured 1, 2, 3, 5 and 7 days following patch treatment. At the same time new patch was applied. All experiments were done in triplicates (3 animals per group).

In experiment [8] the test system is Human keratinocytes. The experiment can be described thus: WST-1 test (mitochondrial activity). Format: cell-based. Particulars: keratinocyte; modified peptides; conc 10 µM; untreated = 1. Here is the method:
Methods. Human melanoma cell lines SK-MEL-28 and WM 266-4 were obtained from the American Tissue Culture Collection (ATCC) and were cultured according to recommendations of ATCC (DMEM, 10% FCS, penicillin+streptomycin). Human keratinocytes were obtained from Clonetics and cultured according to manufacturers protocol. Cells were used in experiments after two passages in the laboratory. Cells were grown in 24 well plates, each treatment in triplicates. Cells were plated 16 hours prior treatments started. Peptides were added to the media, and media was changed every day during 7 day experiment. […] WST-1 test was performed to measure mitochondrial activity, which can also be used as a measure of cell number.
(In general: Formazan colour is commonly taken as a measure of viable cells.)

With “RPKKRKVRRRVKRPMNAFMVWAQAARRKLADQY [SOX10-int1]”, the “Dct/Trp2 promoter activity (CAT assay)” value in the experiment on Dct/Trp2 promoter [1] and with Dct/Trp2 promoter [4] was “suppress Dct/Trp2 promoter activity significantly” throughout. Besides, the WST-1 7 d with B16 [2] is 0.88. Moreover, the “Cell Count 7 d” value in the experiment with B16 [3] turned out to be 72. For the same sequence, in the experiment on B16 [5], the “Apoptosis 7 d/%” value turned out to be 12%.

Consider “RPKKRKVRRRFNINDRIKELGTLIPKSNDPDMRWN [MITF-int1]”, for which the “Dct/Trp2 promoter activity (CAT assay)” value with Dct/Trp2 promoter [1] and with Dct/Trp2 promoter [4] was “suppress Dct/Trp2 promoter activity significantly” throughout. Moreover, the “Cell Count 7 d” value in the experiment with B16 [3] was determined as 63. Also, the “Apoptosis 7 d/%” value in the experiment on B16 [5] amounted to 16%.

Consider “TTGGSSPQGLEAKRPKKRKVRRRFNINDRIKELGTLIPKSNDPDMRWN [MITF-int1M]”, for which the “Cell Count 7 d” value in the experiment with Human keratinocytes [6] is on record as 38. Moreover, the “Apoptosis 7 d/%” value in the experiment on Human keratinocytes [7] worked out at 5%. The “tumor size change (%) 1 d” value in the experiment on B16 melanoma (1 d, B16 s.c. in C57BL/6 mice) turned out to be 112%. Besides, in the experiment with B16 melanoma (2 d), the “tumor size change (%) 2 d” value came out at 135%. Moreover, in the experiment on B16 melanoma (3 d), the “tumor size change (%) 3 d” value turned out to be 150%. For the same sequence, the “tumor size change (%) 5 d” value in the experiment on B16 melanoma (5 d) was 170%. Also, the “tumor size change (%) 7 d” value in the experiment with B16 melanoma (7 d) is listed as 210%. Also, the WST-1 7 d in the experiment with Human keratinocytes [8] worked out at 0.93.
